Measurements as given in patent US20090105221A1, “MUSCARINIC RECEPTOR ANTAGONISTS” (RANBAXY LABORATORIES LIMITED, priority 2004, published 2009).

melting point: 85.2 °C
Compound: O=C(NCC1C2CCC1CNC2)C(O)(c1ccccc1)c1ccccc1 (stereo not shown)
